Assay results reported in patent publication US20120142768A1 (BAXTER INTERNATIONAL INC., priority 2010, published 2012).
Where a name gives a salt, the structure may show the parent alone. Read-outs that look alike come from different tables or passages of the source.

Assays:
[1] = Phase solubility of amiodarone with substituted cyclodextrins; conditions: 5% dextrose, 0.9 mM citrate buffer, pH 3.8, room temperature (FIG. 4)
Description: The actual percent of drug that is complexed will vary according to the complexation equilibrium constant characterizing the complexation of a specific cyclodextrin derivative to a specific drug and to the concentrations of the cyclodextrin derivative and drug available for complexation.
Phase solubility studies can also generate information as to the required amounts of a cyclodextrin needed to solubilize a drug under different conditions such as temperature, cyclodextrin type, or solution composition.

[2] = Ravin et al. 1975, cited from earlier work
[3] = cited from earlier work

SMILES | SBE7-β-CD required for 1.8 mg/mL amiodarone hydrochloride [1] | Amiodarone concentration achievable ([2]; 25 °C) [mg/mL] | Amiodarone concentration achievable ([2]; 40 °C) [mg/mL] | Amiodarone concentration achievable ([2]; about 60 °C) [mg/mL] | Critical micellar concentration (CMC) ([3]; Ravin et al. 1975) | Critical micellar concentration (CMC) ([3]; at Krafft point of ~70 °C, Benedini et al. 2010) [mg/mL]
CCCCc1oc2ccccc2c1C(=O)c1cc(I)c(OCCN(CC)CC)c(I)c1 [amiodarone hydrochloride] | about 6 mg/mL |  |  |  |  | 
CCCCc1oc2ccccc2c1C(=O)c1cc(I)c(OCCN(CC)CC)c(I)c1 [amiodarone] |  | 0.35 | 0.95 | > 13 | approximately 0.5 mg/mL | 1.69
